Data as given in the NIST ThermoML archive (doi:10.1021/je100765j).
Numbers after ± are expanded uncertainties.

Assay: xn = mol fraction of the nth substance listed
Details: 101 kPa, Liquid; for speed of sound: Sing-around technique in a fixed-path interferometer

## CCCCCl [1-chlorobutane] + CC(C)OC(C)C
283.15 K, x1 = 0.0466
  speed of sound: 1070.9 ± 1.1 m/s
  mass density: 740.095 ± 0.91 kg/m3
283.15 K, x1 = 0.0991
  speed of sound: 1076.6 ± 1.1 m/s
  mass density: 747.139 ± 0.89 kg/m3
283.15 K, x1 = 0.1918
  speed of sound: 1087 ± 1.1 m/s
  mass density: 759.833 ± 0.86 kg/m3
283.15 K, x1 = 0.32
  speed of sound: 1101.5 ± 1.2 m/s
  mass density: 778.726 ± 0.83 kg/m3
283.15 K, x1 = 0.4199
  speed of sound: 1112.3 ± 1.2 m/s
  mass density: 793.339 ± 0.8 kg/m3
283.15 K, x1 = 0.516
  speed of sound: 1123.3 ± 1.2 m/s
  mass density: 808.586 ± 0.77 kg/m3
283.15 K, x1 = 0.623
  speed of sound: 1135.5 ± 1.2 m/s
  mass density: 826.434 ± 0.73 kg/m3
283.15 K, x1 = 0.7154
  speed of sound: 1146.3 ± 1.2 m/s
  mass density: 842.63 ± 0.7 kg/m3
283.15 K, x1 = 0.8157
  speed of sound: 1158.2 ± 1.2 m/s
  mass density: 861.003 ± 0.66 kg/m3
283.15 K, x1 = 0.9098
  speed of sound: 1169.3 ± 1.2 m/s
  mass density: 879.099 ± 0.62 kg/m3
283.15 K, x1 = 0.9559
  speed of sound: 1174.9 ± 1.2 m/s
  mass density: 888.28 ± 0.6 kg/m3
288.15 K, x1 = 0.0466
  speed of sound: 1048.6 ± 1.1 m/s
  mass density: 734.99 ± 0.92 kg/m3
288.15 K, x1 = 0.0991
  speed of sound: 1054.3 ± 1.1 m/s
  mass density: 741.966 ± 0.9 kg/m3
288.15 K, x1 = 0.1918
  speed of sound: 1064.7 ± 1.1 m/s
  mass density: 754.629 ± 0.88 kg/m3
288.15 K, x1 = 0.32
  speed of sound: 1079.4 ± 1.1 m/s
  mass density: 773.471 ± 0.84 kg/m3
288.15 K, x1 = 0.4199
  speed of sound: 1090.3 ± 1.1 m/s
  mass density: 788.055 ± 0.81 kg/m3
288.15 K, x1 = 0.516
  speed of sound: 1101.5 ± 1.2 m/s
  mass density: 803.274 ± 0.78 kg/m3
288.15 K, x1 = 0.623
  speed of sound: 1114 ± 1.2 m/s
  mass density: 821.073 ± 0.74 kg/m3
288.15 K, x1 = 0.7154
  speed of sound: 1125 ± 1.2 m/s
  mass density: 837.246 ± 0.71 kg/m3
288.15 K, x1 = 0.8157
  speed of sound: 1137 ± 1.2 m/s
  mass density: 855.588 ± 0.67 kg/m3
288.15 K, x1 = 0.9098
  speed of sound: 1148.4 ± 1.2 m/s
  mass density: 873.635 ± 0.64 kg/m3
288.15 K, x1 = 0.9559
  speed of sound: 1154.2 ± 1.2 m/s
  mass density: 882.81 ± 0.62 kg/m3
293.15 K, x1 = 0.0466
  speed of sound: 1026.2 ± 1.1 m/s
  mass density: 729.792 ± 0.93 kg/m3
293.15 K, x1 = 0.0991
  speed of sound: 1032 ± 1.1 m/s
  mass density: 736.75 ± 0.91 kg/m3
293.15 K, x1 = 0.1918
  speed of sound: 1042.5 ± 1.1 m/s
  mass density: 749.383 ± 0.89 kg/m3
293.15 K, x1 = 0.32
  speed of sound: 1057.3 ± 1.1 m/s
  mass density: 768.192 ± 0.85 kg/m3
293.15 K, x1 = 0.4199
  speed of sound: 1068.4 ± 1.1 m/s
  mass density: 782.731 ± 0.82 kg/m3
293.15 K, x1 = 0.516
  speed of sound: 1079.7 ± 1.1 m/s
  mass density: 797.924 ± 0.79 kg/m3
293.15 K, x1 = 0.623
  speed of sound: 1092.4 ± 1.2 m/s
  mass density: 815.68 ± 0.75 kg/m3
293.15 K, x1 = 0.7154
  speed of sound: 1103.6 ± 1.2 m/s
  mass density: 831.821 ± 0.72 kg/m3
293.15 K, x1 = 0.8157
  speed of sound: 1115.9 ± 1.2 m/s
  mass density: 850.133 ± 0.68 kg/m3
293.15 K, x1 = 0.9098
  speed of sound: 1127.6 ± 1.2 m/s
  mass density: 868.142 ± 0.65 kg/m3
293.15 K, x1 = 0.9559
  speed of sound: 1133.4 ± 1.2 m/s
  mass density: 877.303 ± 0.63 kg/m3
298.15 K, x1 = 0.0466
  speed of sound: 1003.8 ± 1.1 m/s
  mass density: 724.56 ± 0.94 kg/m3
298.15 K, x1 = 0.0991
  speed of sound: 1009.7 ± 1.1 m/s
  mass density: 731.492 ± 0.92 kg/m3
298.15 K, x1 = 0.1918
  speed of sound: 1020.2 ± 1.1 m/s
  mass density: 744.091 ± 0.9 kg/m3
298.15 K, x1 = 0.32
  speed of sound: 1035.2 ± 1.1 m/s
  mass density: 762.854 ± 0.86 kg/m3
298.15 K, x1 = 0.4199
  speed of sound: 1046.6 ± 1.1 m/s
  mass density: 777.351 ± 0.83 kg/m3
298.15 K, x1 = 0.516
  speed of sound: 1058 ± 1.1 m/s
  mass density: 792.506 ± 0.8 kg/m3
298.15 K, x1 = 0.623
  speed of sound: 1071 ± 1.1 m/s
  mass density: 810.177 ± 0.76 kg/m3
298.15 K, x1 = 0.7154
  speed of sound: 1082.3 ± 1.1 m/s
  mass density: 826.321 ± 0.73 kg/m3
298.15 K, x1 = 0.8157
  speed of sound: 1094.8 ± 1.2 m/s
  mass density: 844.587 ± 0.69 kg/m3
298.15 K, x1 = 0.9098
  speed of sound: 1106.6 ± 1.2 m/s
  mass density: 862.556 ± 0.66 kg/m3
298.15 K, x1 = 0.9559
  speed of sound: 1112.7 ± 1.2 m/s
  mass density: 871.691 ± 0.64 kg/m3
303.15 K, x1 = 0.0466
  speed of sound: 981.56 ± 1.1 m/s
  mass density: 719.283 ± 0.95 kg/m3
303.15 K, x1 = 0.0991
  speed of sound: 987.54 ± 1.1 m/s
  mass density: 726.204 ± 0.93 kg/m3
303.15 K, x1 = 0.1918
  speed of sound: 998.37 ± 1.1 m/s
  mass density: 738.777 ± 0.91 kg/m3
303.15 K, x1 = 0.32
  speed of sound: 1013.6 ± 1.1 m/s
  mass density: 757.526 ± 0.87 kg/m3
303.15 K, x1 = 0.4199
  speed of sound: 1024.8 ± 1.1 m/s
  mass density: 771.984 ± 0.84 kg/m3
303.15 K, x1 = 0.516
  speed of sound: 1036.5 ± 1.1 m/s
  mass density: 787.119 ± 0.81 kg/m3
303.15 K, x1 = 0.623
  speed of sound: 1049.6 ± 1.1 m/s
  mass density: 804.761 ± 0.77 kg/m3
303.15 K, x1 = 0.7154
  speed of sound: 1061.1 ± 1.1 m/s
  mass density: 820.882 ± 0.74 kg/m3
303.15 K, x1 = 0.8157
  speed of sound: 1073.8 ± 1.1 m/s
  mass density: 839.124 ± 0.7 kg/m3
303.15 K, x1 = 0.9098
  speed of sound: 1085.9 ± 1.1 m/s
  mass density: 857.076 ± 0.67 kg/m3
303.15 K, x1 = 0.9559
  speed of sound: 1092 ± 1.2 m/s
  mass density: 866.204 ± 0.65 kg/m3
308.15 K, x1 = 0.0466
  speed of sound: 959.5 ± 1.1 m/s
  mass density: 713.967 ± 0.96 kg/m3
308.15 K, x1 = 0.0991
  speed of sound: 965.54 ± 1.1 m/s
  mass density: 720.87 ± 0.94 kg/m3
308.15 K, x1 = 0.1918
  speed of sound: 976.43 ± 1.1 m/s
  mass density: 733.414 ± 0.92 kg/m3
308.15 K, x1 = 0.32
  speed of sound: 991.71 ± 1.1 m/s
  mass density: 752.126 ± 0.88 kg/m3
308.15 K, x1 = 0.4199
  speed of sound: 1003.3 ± 1.1 m/s
  mass density: 766.553 ± 0.85 kg/m3
308.15 K, x1 = 0.516
  speed of sound: 1015 ± 1.1 m/s
  mass density: 781.656 ± 0.82 kg/m3
308.15 K, x1 = 0.623
  speed of sound: 1028.4 ± 1.1 m/s
  mass density: 799.266 ± 0.78 kg/m3
308.15 K, x1 = 0.7154
  speed of sound: 1040.1 ± 1.1 m/s
  mass density: 815.358 ± 0.75 kg/m3
308.15 K, x1 = 0.8157
  speed of sound: 1053 ± 1.1 m/s
  mass density: 833.567 ± 0.71 kg/m3
308.15 K, x1 = 0.9098
  speed of sound: 1065.3 ± 1.1 m/s
  mass density: 851.486 ± 0.68 kg/m3
308.15 K, x1 = 0.9559
  speed of sound: 1071.5 ± 1.1 m/s
  mass density: 860.595 ± 0.66 kg/m3
313.15 K, x1 = 0.0466
  speed of sound: 937.74 ± 1.1 m/s
  mass density: 708.604 ± 0.97 kg/m3
313.15 K, x1 = 0.0991
  speed of sound: 943.72 ± 1.1 m/s
  mass density: 715.486 ± 0.95 kg/m3
313.15 K, x1 = 0.1918
  speed of sound: 954.72 ± 1.1 m/s
  mass density: 728.002 ± 0.93 kg/m3
313.15 K, x1 = 0.32
  speed of sound: 970.22 ± 1.1 m/s
  mass density: 746.649 ± 0.89 kg/m3
313.15 K, x1 = 0.4199
  speed of sound: 981.83 ± 1.1 m/s
  mass density: 761.063 ± 0.86 kg/m3
313.15 K, x1 = 0.516
  speed of sound: 993.77 ± 1.1 m/s
  mass density: 776.136 ± 0.83 kg/m3
313.15 K, x1 = 0.623
  speed of sound: 1007.3 ± 1.1 m/s
  mass density: 793.704 ± 0.8 kg/m3
313.15 K, x1 = 0.7154
  speed of sound: 1019.1 ± 1.1 m/s
  mass density: 809.769 ± 0.76 kg/m3
313.15 K, x1 = 0.8157
  speed of sound: 1032.2 ± 1.1 m/s
  mass density: 827.935 ± 0.73 kg/m3
313.15 K, x1 = 0.9098
  speed of sound: 1044.8 ± 1.1 m/s
  mass density: 845.816 ± 0.69 kg/m3
313.15 K, x1 = 0.9559
  speed of sound: 1051.1 ± 1.1 m/s
  mass density: 854.913 ± 0.67 kg/m3
